Assay results as given in ChEMBL document CHEMBL5726876, “NHE3-binding compounds and methods for inhibiting phosphate transport” (2019).
“And” between values parts separate entries of the source, which are not always exact repeats. Equal entries are not always repeated.

Assays:
[1] = Cell-Based Assay of NHE3 Activity under Persistent Conditions: The ability of compounds to inhibit Rat NHE3-mediated Na+-dependent H+ antiport after application and washout was measured using a modification of the pH sensitive dye method described above. Opossum kidney (OK) cells were obtained from the ATCC and propagated per their instructions. The rat NHE3 gene was introduced into OK cells via electroporation, and cells were seeded into 96 well plates and grown overnight. Medium was aspirated from the wells, cells were washed twice with NaCl-HEPES buffer (100 mM NaCl, 50 mM HEPES, 10 mM glucose, 5 mM KCl, 2 mM CaCl2, 1 mM MgCl2, pH 7.4), then overlayed with NaCl-HEPES buffer containing 0-30 μM test compound.After a 60 min incubation, the test drug containing buffer was aspirated from the cells, cells were washed twice with NaCl-HEPES buffer without drug, then incubated for 30 min at room temperature with NH4Cl-HEPES buffer (20 mM NH4Cl, 80 mM NaCl, 50 mM HEPES, 5 mM KCl, 2 mM CaCl2, 1 mM MgCl2, pH 7.4) containing 5 uM BCECF-AM. Cells were washed twice with Ammonium free, Natfree HEPES (100 mM choline, 50 mM HEPES, 10 mM glucose, 5 mM KCl, 2 mM CaCl2, 1 mM MgCl2, pH 7.4) and incubated in the same buffer for 10 minutes at room temperature to lower intracellular pH. […] Initial rates were plotted as the average 2 or more replicates, and pIC50 values w
[2] = Cell-based activity under Prompt Conditions: Cell-based activity under Prompt Conditions. Rat or human NHE3-mediated Na+-dependent H+ antiport was measured using a modification of the pH sensitive dye method originally reported by Paradiso (PNAS USA. 81:7436-7440, 1984). Opossum kidney (OK) cells were obtained from the ATCC and propagated per their instructions. The rat NHE3 gene (GenBank M85300) or the human NHE3 gene (GenBank NM_004174.1) was introduced into OK cells via electroporation, and cells were seeded into 96 well plates and grown overnight. Medium was aspirated from the wells, cells were washed twice with NaCl-HEPES buffer (100 mM NaCl, 50 mM HEPES, 10 mM glucose, 5 mM KCl, 2 mM CaCl2, 1 mM MgCl2, pH 7.4), then incubated for 30 min at room temperature with NH4Cl-HEPES buffer (20 mM NH4Cl, 80 mM NaCl, 50 mM HEPES, 5 mM KCl, 2 mM CaCl2, 1 mM MgCl2, pH 7.4) containing 5 μM bis(acetoxymethyl) 3,3′-(3′,6′-bis(acetoxymethoxy)-5-((acetoxymethoxy)carbonyl)-3-oxo-3H-spiro[isobenzofuran-1,9′-xanthene]-2′,7′-diyl)dipropanoate (BCECF-AM).Cells were washed twice with Ammonium free, Na+-free HEPES (100 mM choline, 50 mM HEPES, 10 mM glucose, 5 mM KCl, 2 mM CaCl2, 1 mM MgCl2, pH 7.4) and incubated in the same buffer for 10 minutes at room temperature to lower intracellular pH. […] Initial rates were plotted as the average 2 or more replicates, and pIC50 values were estimated using GraphPad Prism.
[3] = Cell-based assay of NaP2b activity: The rate of phosphate (Pi) uptake into cells was measured using a modification of a literature method (see Mohrmann et al. Am. J. Phys. 250(3 pt 1):G323-30, 1986). Briefly, HEK293 cells were transiently transfected with an expression clone encoding either rat or human NaP2b. The next day, transfected cells were treated with a pharmacological agent to minimize endogenous PiT-mediated phosphate transport activity, such that the only remaining sodium-dependent phosphate transport activity is that which was bestowed by introduction of the NaP2b gene. Cells were incubated with radioactive inorganic phosphate in the presence or absence of varying concentrations of test compound. After a short time, cells were washed, harvested, and the amount of hot phosphate taken up in the cells determined by liquid scintillation counting.HEK293 cells were obtained from the American Type Culture collection and propagated per their instructions. Expression clones for rat and human NaP2b (SLC34A2) were obtained from Open Biosystems (Catalog numbers MRN1768-9510282, and MHS1010-99823026, respectively). There are two putative splice variants of human NaP2b, designated as isoform a and isoform b (NCBI Reference Sequences: NP_006415.2 and NP_ 001171470.1, respectively). […] […]

IC50 [3]	SMILES	IC50 [1]	IC50 [2]
–	CN1Cc2c(Cl)cc(Cl)cc2[C@@H](c2cccc(S(=O)(=O)NCCOCCOCCNC(=O)NCCCCNC(=O)NCCOCCOCCNS(=O)(=O)c3cccc([C@H]4CN(C)Cc5c(Cl)cc(Cl)cc54)c3)c2)C1	2510 nM	< 10000 nM and 50.1 nM
–	CN1Cc2c(Cl)cc(Cl)cc2[C@H](c2cccc(S(=O)(=O)NCCOCCOCCN(C)C(=O)CCC(CCC(=O)N(C)CCOCCOCCNS(=O)(=O)c3cccc([C@@H]4CN(C)Cc5c(Cl)cc(Cl)cc54)c3)(CCC(=O)N(C)CCOCCOCCNS(=O)(=O)c3cccc([C@@H]4CN(C)Cc5c(Cl)cc(Cl)cc54)c3)NC(=O)COCC(=O)O)c2)C1	–	20 nM
–	CN1Cc2c(Cl)cc(Cl)cc2[C@H](c2cccc(S(=O)(=O)NCCOCCOCCN(C)C(=O)CCC(N)(CCC(=O)N(C)CCOCCOCCNS(=O)(=O)c3cccc([C@@H]4CN(C)Cc5c(Cl)cc(Cl)cc54)c3)CCC(=O)N(C)CCOCCOCCNS(=O)(=O)c3cccc([C@@H]4CN(C)Cc5c(Cl)cc(Cl)cc54)c3)c2)C1	–	15.8 nM
–	CN1Cc2c(Cl)cc(Cl)cc2[C@H](c2cccc(S(=O)(=O)NCCOCCOCCNC(=O)CCC(CCC(=O)NCCOCCOCCNS(=O)(=O)c3cccc([C@@H]4CN(C)Cc5c(Cl)cc(Cl)cc54)c3)(CCC(=O)NCCOCCOCCNS(=O)(=O)c3cccc([C@@H]4CN(C)Cc5c(Cl)cc(Cl)cc54)c3)NC(=O)NC(CO)CO)c2)C1	–	79.4 nM
–	CN(C)CC(=O)NC(CCC(=O)N(C)CCOCCOCCNS(=O)(=O)c1cccc([C@@H]2CN(C)Cc3c(Cl)cc(Cl)cc32)c1)(CCC(=O)N(C)CCOCCOCCNS(=O)(=O)c1cccc([C@@H]2CN(C)Cc3c(Cl)cc(Cl)cc32)c1)CCC(=O)N(C)CCOCCOCCNS(=O)(=O)c1cccc([C@@H]2CN(C)Cc3c(Cl)cc(Cl)cc32)c1	–	31.6 nM
–	CN(C)[C@H]1Cc2c(Cl)cc(Cl)cc2[C@@H]1Oc1ccc(S(=O)(=O)NCCOCCOCCNC(=O)CCC(C)(CCC(=O)NCCOCCOCCNS(=O)(=O)c2ccc(O[C@H]3c4cc(Cl)cc(Cl)c4C[C@@H]3N(C)C)cc2)NC(=O)CCC(=O)O)cc1	–	10 nM
–	CN1Cc2c(Cl)cc(Cl)cc2[C@H](c2cccc(S(=O)(=O)NCCOCCOCCNC(=O)Nc3ccc(NC(=O)NCCOCCOCCNS(=O)(=O)c4cccc([C@@H]5CN(C)Cc6c(Cl)cc(Cl)cc65)c4)cc3)c2)C1	–	2.51 nM
–	CN1Cc2c(Cl)cc(Cl)cc2[C@H](c2cccc(NC(=O)[C@H](O)[C@@H](O)[C@H](O)[C@H](O)CO)c2)C1	–	25.1 nM
< 31600 nM	CN1Cc2c(Cl)cc(Cl)cc2[C@H](c2cccc(S(=O)(=O)NCCOCCOCCNC(=O)NCCCCNC(=O)NCCOCCOCCNS(=O)(=O)c3cccc([C@@H]4CN(C)Cc5c(Cl)cc(Cl)cc54)c3)c2)C1 [TENAPANOR]	3.98 nM	9.33 nM and 10 nM
